This is an account of results in patent publication US20130045983A1, “HSP90 INHIBITORS FOR THERAPEUTIC TREATMENT” (Novartis AG, priority 2008, published 2013).

Holding throughout (format): cell-based
One experiment relates to H1975. Description: Cell proliferation assay, H1975 (lung). Conditions: Homo sapiens, NCI-H1975, 72 hours in presence of compound. The protocol:
(§1) Seventeen cancer derived cell lines are used (GTL-16, N87, H1975, A549, H69, A2780, PC3, BT474, SKBR3, MCF-7, A375, MV4;11, K562, KM12L4A, H929, OPM-2 and KMS-11) to test the effect of (R)-2-amino-7-[2-(6-methoxy-pyridin-2-yl)-phenyl]-4-methyl-7,8-dihydro-6H-pyrido[4,3-d]pyrimidin-5-one. These cell lines cover the following 9 tumor types: Gastric, Lung, Ovarian, Prostate, Breast, Melanoma, Leukemia, Colon and Multiple myeloma. After division and medium change, cells from stock culture are seeded on cell plates and cultured for about 18 hours to allow cell growth and attachment before starting the assay. Then on the first day of the assay, (R)-2-amino-7-[2-(6-methoxy-pyridin-2-yl)-phenyl]-4-methyl-7,8-dihydro-6H-pyrido[4,3-d]pyrimidin-5-one is added to the medium at various concentrations. Cells are cultured up to 72 or 96 hours and cell proliferation is determined using commercially available cell proliferation kits.
(§2) Table 1 relates to the concentration in nM of (R)-2-amino-7-[2-(6-methoxy-pyridin-2-yl)-phenyl]-4-methyl-7,8-dihydro-6H-pyrido[4,3-d]pyrimidin-5-one which inhibits cell proliferation by 50% (IC50). […]

In the next experiment the test system is A549. Description: Cell proliferation assay, A549 (lung). To be noted: Homo sapiens, 72 hours in presence of compound. The protocol:
as §1, §2

Another experiment has as its system H69. Description: Cell proliferation assay, H69 (lung). Conditions: Homo sapiens, NCI-H69, 72 hours in presence of compound. The protocol: as §1, §2
A further experiment has as its system MCF-7. Briefly: Cell proliferation assay, MCF-7 (breast). To be noted: Homo sapiens, MCF7, 72 hours in presence of compound. The protocol:
as §1, §2

The subject of a further experiment is A375m. Briefly: Cell proliferation assay, A375m (melanoma). Conditions: 72 hours in presence of compound. The protocol: as §1, §2
A further experiment concerns MV4:11. Briefly: Cell proliferation assay, MV4:11 (leukemia). Conditions: Homo sapiens, 72 hours in presence of compound. The protocol:
as §1, §2

In the next experiment the test system is BXF 1218. Briefly: Clonogenic assay, BXF 1218. Conditions: Homo sapiens, Bladder, Transitional cell carcinoma, soft agar, read-out: IC50 (colony formation). The protocol:
(§3) The anticancer activity of (R)-2-amino-7-[2-(6-methoxy-pyridin-2-yl)-phenyl]-4-methyl-7,8-dihydro-6H-pyrido[4,3-d]pyrimidin-5-one is evaluated in 30 human tumor xenografts in vitro using a clonogenic assay. In this assay, human cells derived from cancer patients are evaluated for the capacity of (R)-2-amino-7-[2-(6-methoxy-pyridin-2-yl)-phenyl]-4-methyl-7,8-dihydro-6H-pyrido[4,3-d]pyrimidin-5-one to inhibit the formation of 3 dimensional colonies. […] The tumor xenografts which have never been cultured in cell culture plastic dishes are isolated from nude mice. Tumor cell suspensions are prepared and incubated in 24 well plates containing layers of soft agar. Under these conditions a special subpopulation of cells selectively grows to colonies. (R)-2-amino-7-[2-(6-methoxy-pyridin-2-yl)-phenyl]-4-methyl-7,8-dihydro-6H-pyrido[4,3-d]pyrimidin-5one is tested in 6 concentrations up to 1000 nM. The tumor test panel comprises 1 to 10 models of 12 different human tumor types, which were bladder cancer, colon, gastric, non small cell lung (adeno, squamous cell, and large cell), small cell lung, mammary, ovary, and prostate cancer, as well as leukemia, lymphoma, melanoma, and sarcoma. Antitumor effects are recorded as inhibition of colony formation in relation to untreated controls. […]

The subject of a further experiment is CXF 1103. Briefly: Clonogenic assay, CXF 1103. To be noted: Homo sapiens, CXF1103, Colon, Adenocarcinoma, soft agar, read-out: IC50 (colony formation). As to the method: as §3
The next experiment relates to CXF 1729. Briefly: Clonogenic assay, CXF 1729. Conditions: Homo sapiens, Colon, Papillary adenocarcinoma, soft agar, read-out: IC50 (colony formation). The protocol: as §3
Another experiment deals with GXF 1172. Description: Clonogenic assay, GXF 1172. Conditions: Homo sapiens, Stomach, Signet-ring cell carcinoma, soft agar, read-out: IC50 (colony formation). The protocol: as §3
A further experiment has as its system LEXF CCRFCEM. Briefly: Clonogenic assay, LEXF CCRFCEM. Conditions: Homo sapiens, CCRF-CEM, Leukemia, ALL, T lymphoblast, soft agar, read-out: IC50 (colony formation). The protocol: as §3
The subject of a further experiment is LEXF K562. Briefly: Clonogenic assay, LEXF K562. Conditions: Homo sapiens, Chronic myelogenous leukemia, soft agar, read-out: IC50 (colony formation). As to the method:
as §3

The next experiment deals with LXFA 1012. Briefly: Clonogenic assay, LXFA 1012. Conditions: Homo sapiens, Lung, non-small cell, Adenocarcinoma, soft agar, read-out: IC50 (colony formation). The protocol:
as §3

The next experiment has as its system LXFE 1422. Briefly: Clonogenic assay, LXFE 1422. Conditions: Homo sapiens, Lung, non-small cell, Squamous cell carcinoma, soft agar, read-out: IC50 (colony formation). As to the method:
as §3

A further experiment has as its system LXFE 211. Description: Clonogenic assay, LXFE 211. To be noted: Homo sapiens, Lung, non-small cell, Squamous cell carcinoma, soft agar, read-out: IC50 (colony formation). As to the method:
as §3

The test system of the next experiment is LXFL 1647. Description: Clonogenic assay, LXFL 1647. Conditions: Homo sapiens, Lung, non-small cell, Large cell lung carcinoma, soft agar, read-out: IC50 (colony formation). As to the method:
as §3

For the next experiment, the system named is MAXF 1162. Description: Clonogenic assay, MAXF 1162. Conditions: Homo sapiens, Breast, invasive ductal carcinoma, soft agar, read-out: IC50 (colony formation). As to the method:
as §3

The test system of another experiment is MAXF 1384. Briefly: Clonogenic assay, MAXF 1384. Conditions: Homo sapiens, Breast, Adenocarcinoma, soft agar, read-out: IC50 (colony formation). As to the method:
as §3

The next experiment relates to MAXF 713. Briefly: Clonogenic assay, MAXF 713. Conditions: Homo sapiens, Breast, Adenocarcinoma, soft agar, read-out: IC50 (colony formation). As to the method:
as §3

The subject of another experiment is MAXF 857. Briefly: Clonogenic assay, MAXF 857. Conditions: Homo sapiens, Breast, Invasive ductal carcinoma, soft agar, read-out: IC50 (colony formation). As to the method: as §3

Molecules are shown by their SMILES. Where only a bound is given, the exact number is not on record here.

Broadly, the GI50 is the concentration at which growth is held to half of that of the control. For orientation: IC50 means the concentration that gives 50% inhibition. For `COc1cccc(-c2ccccc2[C@H]2Cc3nc(N)nc(C)c3C(=O)N2)n1` [(R)-2-amino-7-[2-(6-methoxy-pyridin-2-yl)-phenyl]-4-methyl-7,8-dihydro-6H-pyrido[4,3-d]pyrimidin-5-one], the GI50 with H1975 turned out to be 33 nM; in the experiment with A549 it was 16 nM; with H69 it was 37 nM; in the experiment with MCF-7 it was 8 nM; in the experiment on A375m, 36 nM; in the experiment with MV4:11, 4 nM. Moreover, the IC50 in the experiment on BXF 1218 is 26 nM; with CXF 1103, 27 nM; with CXF 1729, 199 nM; in the experiment with GXF 1172 it was 43 nM; in the experiment with LEXF CCRFCEM it was 27 nM; in the experiment on LEXF K562, 13 nM. Further, the IC50 was over 1000 nM in the experiment with LXFA 1012; 20 nM in the experiment on LXFE 1422; 0.76 nM with LXFE 211; 203 nM with LXFL 1647; 6 nM with MAXF 1162; 14 nM with MAXF 1384. Also, the IC50 is over 1000 nM in the experiment on MAXF 713 and 12 nM in the experiment on MAXF 857.
